According to ChEMBL document CHEMBL5352388 (Eur J Med Chem, 2022):
pIC50: −log10 of the molar value. The source made the active and inactive calls. The calls are words filed in the database; no cut-off is given here.

What was measured:
A549 [1] = test: Antitumor activity against human A549 cells xenografted in BALB/c mouse assessed as reduction in tumor growth at 20 mg/kg,ip administrated for 15 days; assay type: functional, organism-based; details: time 15.0 day
CYP2D6 = CYP2D6 (Homo sapiens, UniProt P10635); test: Inhibition of CYP2D6 (unknown origin) at 10 uM incubated for 20 mins in presence of NADPH by LC/MS/MS analysis relative to control; assay type: ADME
CYP2D6, sequence (P10635 whole entry): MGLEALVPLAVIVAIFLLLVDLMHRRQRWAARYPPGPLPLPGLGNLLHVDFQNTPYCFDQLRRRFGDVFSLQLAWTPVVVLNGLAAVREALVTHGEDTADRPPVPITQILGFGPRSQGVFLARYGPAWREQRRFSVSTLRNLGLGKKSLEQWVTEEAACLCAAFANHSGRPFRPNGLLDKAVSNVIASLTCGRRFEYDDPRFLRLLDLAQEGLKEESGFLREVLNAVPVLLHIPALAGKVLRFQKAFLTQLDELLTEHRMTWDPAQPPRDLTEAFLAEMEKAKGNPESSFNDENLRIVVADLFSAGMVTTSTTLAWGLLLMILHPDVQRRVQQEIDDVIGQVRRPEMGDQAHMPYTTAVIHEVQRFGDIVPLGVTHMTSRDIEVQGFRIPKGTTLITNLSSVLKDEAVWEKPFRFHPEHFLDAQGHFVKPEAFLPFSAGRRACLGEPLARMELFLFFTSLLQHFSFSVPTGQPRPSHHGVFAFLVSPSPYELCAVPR

A549 [2] = test: Antitumor activity against human A549 cells xenografted in BALB/c mouse assessed as chromatin condensation at 20 mg/kg,ip administrated for 15 days; assay type: functional, organism-based; details: time 15.0 day
[3] = target: Voltage-gated inwardly rectifying potassium channel KCNH2 (Homo sapiens, UniProt Q12809); test: Inhibition of human ERG stably expressed in CHO cells by patch clamp assay; assay type: toxicity, cell-based
Voltage-gated inwardly rectifying potassium channel KCNH2, sequence (Q12809 whole entry): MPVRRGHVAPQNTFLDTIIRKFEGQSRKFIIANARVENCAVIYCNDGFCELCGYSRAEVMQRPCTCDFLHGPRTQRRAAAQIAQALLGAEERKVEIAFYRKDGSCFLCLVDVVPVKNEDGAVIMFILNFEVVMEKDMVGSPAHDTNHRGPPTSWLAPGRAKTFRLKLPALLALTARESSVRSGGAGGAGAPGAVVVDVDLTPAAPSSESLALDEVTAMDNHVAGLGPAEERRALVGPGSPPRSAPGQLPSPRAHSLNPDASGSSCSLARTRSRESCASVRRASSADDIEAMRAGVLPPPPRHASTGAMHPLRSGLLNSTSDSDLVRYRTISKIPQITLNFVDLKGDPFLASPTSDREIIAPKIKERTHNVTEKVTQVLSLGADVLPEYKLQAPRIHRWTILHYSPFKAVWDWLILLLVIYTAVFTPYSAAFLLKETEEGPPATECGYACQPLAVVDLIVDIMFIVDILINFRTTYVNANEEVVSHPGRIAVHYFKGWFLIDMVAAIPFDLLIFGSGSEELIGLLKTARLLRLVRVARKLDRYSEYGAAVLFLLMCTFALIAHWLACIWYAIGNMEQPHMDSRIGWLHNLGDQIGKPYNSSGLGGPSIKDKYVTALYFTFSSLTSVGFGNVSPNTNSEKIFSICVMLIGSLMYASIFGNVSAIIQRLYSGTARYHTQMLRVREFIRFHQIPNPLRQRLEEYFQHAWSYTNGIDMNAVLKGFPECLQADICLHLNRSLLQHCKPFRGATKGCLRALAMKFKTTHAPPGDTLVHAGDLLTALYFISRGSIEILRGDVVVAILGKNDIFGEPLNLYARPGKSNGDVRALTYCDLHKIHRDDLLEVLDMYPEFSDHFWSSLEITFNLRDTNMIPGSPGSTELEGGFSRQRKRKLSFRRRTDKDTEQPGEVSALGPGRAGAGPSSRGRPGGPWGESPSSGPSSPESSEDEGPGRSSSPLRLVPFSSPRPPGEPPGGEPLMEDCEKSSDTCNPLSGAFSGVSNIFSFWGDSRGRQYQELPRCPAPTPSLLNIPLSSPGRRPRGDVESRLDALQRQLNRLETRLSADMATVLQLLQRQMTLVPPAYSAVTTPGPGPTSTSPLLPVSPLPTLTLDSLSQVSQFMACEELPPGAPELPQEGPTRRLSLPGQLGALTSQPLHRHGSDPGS

A549 [4] = test: Antitumor activity against human A549 cells xenografted in BALB/c mouse assessed as appearance of pyknosis at 10 mg/kg,ip administrated for 15 days; assay type: functional, organism-based; details: time 15.0 day
[5] = target: T1, Amine oxidase [flavin-containing] A (Homo sapiens, UniProt P21397)
T1 sequence (P21397 whole entry): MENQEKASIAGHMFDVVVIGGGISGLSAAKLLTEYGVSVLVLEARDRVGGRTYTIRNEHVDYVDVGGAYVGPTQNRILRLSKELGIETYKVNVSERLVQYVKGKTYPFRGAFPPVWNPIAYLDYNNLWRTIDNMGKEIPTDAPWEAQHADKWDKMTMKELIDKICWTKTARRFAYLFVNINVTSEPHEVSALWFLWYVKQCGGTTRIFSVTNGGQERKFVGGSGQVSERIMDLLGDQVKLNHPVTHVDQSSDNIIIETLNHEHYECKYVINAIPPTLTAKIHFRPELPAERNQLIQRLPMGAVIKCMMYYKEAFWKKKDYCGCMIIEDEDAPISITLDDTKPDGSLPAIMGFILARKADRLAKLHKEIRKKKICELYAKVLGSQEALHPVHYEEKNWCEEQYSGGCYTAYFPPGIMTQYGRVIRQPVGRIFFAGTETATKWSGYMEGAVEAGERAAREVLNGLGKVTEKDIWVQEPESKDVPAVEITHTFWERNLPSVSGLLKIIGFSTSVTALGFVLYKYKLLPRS
Description: Inhibition of recombinant MAO-A (unknown origin) incubated for 60 mins by luminescence based flow cytometry

A549 [6] = test: Antitumor activity against human A549 cells xenografted in BALB/c mouse assessed as reduction in KI67 positive cells at 10 mg/kg,ip administrated for 15 days; assay type: functional, organism-based; details: time 15.0 day
A549 [7] = test: Induction of apoptosis in human A549 cells assessed as upregulation of Bax at 1 to 4 uM incubated for 72 hrs by Western blotting assay; assay type: functional, cell-based; details: dose 1-4 µM
MGC-803 = test: cells; details: Homo sapiens, MGC-803, 72 h
Description: Antiproliferative activity against human MGC-803 cells assessed as inhibition of cell growth incubated for 72 hrs by CCK-8 assay

NCI-H460 = test: cells; details: Homo sapiens, NCI-H460, 72 h
Description: Antiproliferative activity against human NCI-H460 cells assessed as inhibition of cell growth incubated for 72 hrs by CCK-8 assay

A549 [8] = test: Inhibition of colony formation in human A549 cells at 2 uM; assay type: functional, cell-based
[9] = Metabolic stability in human liver microsomes assessed as compound remaining measured upto 60 mins in presence of NADPH by LC/MS/MS analysis; assay type: ADME, Microsome; details: read-out: Stability
[10] = Metabolic stability in human liver microsomes assessed as compound remaining measured upto 60 mins by LC/MS/MS analysis; assay type: ADME, Microsome; details: read-out: Stability
[11] = Half life in human liver microsomes measured upto 60 mins in presence of NADPH by LC/MS/MS analysis; assay type: ADME, Microsome
[12] = target: T2, Lysine-specific histone demethylase 1A (Homo sapiens, UniProt O60341); test: Inhibition of LSD1 in human A549 cells assessed as increase in H3K4me2 protein level at 1 to 4 uM incubated for 72 hrs by Western blotting assay; assay type: cell-based; details: dose 1-4 µM
A549 [13] = test: Induction of apoptosis in human A549 cells assessed as downregulation of BCL-2 at 1 to 4 uM incubated for 72 hrs by Western blotting assay; assay type: functional, cell-based; details: dose 1-4 µM
CYP1A2 = target: T3, CYP1A2 (Homo sapiens, UniProt P05177); test: Inhibition of CYP1A2 (unknown origin) at 10 uM incubated for 20 mins in presence of NADPH by LC/MS/MS analysis relative to control; assay type: ADME
T3 sequence (P05177 whole entry): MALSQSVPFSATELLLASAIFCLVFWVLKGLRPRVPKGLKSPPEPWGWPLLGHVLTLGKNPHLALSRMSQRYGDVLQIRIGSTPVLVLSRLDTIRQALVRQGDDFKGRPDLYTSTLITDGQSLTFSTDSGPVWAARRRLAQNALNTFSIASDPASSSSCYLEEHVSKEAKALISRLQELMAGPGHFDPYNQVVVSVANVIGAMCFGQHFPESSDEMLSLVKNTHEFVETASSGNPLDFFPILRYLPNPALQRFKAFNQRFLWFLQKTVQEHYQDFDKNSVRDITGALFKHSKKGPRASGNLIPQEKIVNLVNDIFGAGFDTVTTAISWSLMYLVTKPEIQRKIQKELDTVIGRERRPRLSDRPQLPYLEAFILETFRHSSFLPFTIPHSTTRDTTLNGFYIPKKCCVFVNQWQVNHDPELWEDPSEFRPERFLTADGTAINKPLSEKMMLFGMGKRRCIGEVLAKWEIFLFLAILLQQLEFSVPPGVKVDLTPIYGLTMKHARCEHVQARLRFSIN

[14] = AUC (0-infinity) in Sprague-Dawley rat at 3 mg/kg,iv by LC-MS/MS analysis; assay type: ADME, organism-based; set-up: dose 3 mg/kg, route iv; details: in vivo
[15] = Clearance in Sprague-Dawley rat at 3 mg/kg,iv by LC-MS/MS analysis; assay type: ADME, organism-based; details: in vivo
[16] = Toxicity in BALB/c mouse xenografted with human A549 cells assessed as change in body weight at 10 mg/kg,ip administrated for 15 days; assay type: organism-based; details: in vivo, 360 h, time 15 day
[17] = target: T2, Lysine-specific histone demethylase 1A; test: Reversible inhibition of LSD-1 (unknown origin) by jump dilution assay
A549 [18] = test: Induction of apoptosis in human A549 cells assessed as downregulation of AKT phosphorylation incubated for 72 hrs by Western blotting assay; assay type: functional, cell-based
A549 [19] = test: Antitumor activity against human A549 cells xenografted in BALB/c mouse assessed as appearance of pyknosis at 20 mg/kg,ip administrated for 15 days; assay type: functional, organism-based; details: time 15.0 day
A549 [20] = test: Antitumor activity against human A549 cells xenografted in BALB/c mouse assessed as decrease in tumor cell density at 10 mg/kg,ip administrated for 15 days; assay type: functional, organism-based; details: time 15.0 day
[21] = target: T2, Lysine-specific histone demethylase 1A; test: Inhibition of LSD1 in human A549 cells assessed as increase in H3K9me2 protein level at 1 to 4 uM incubated for 72 hrs by Western blotting assay; assay type: cell-based; details: dose 1-4 µM
[22] = Tmax in Sprague-Dawley rat at 10 mg/kg,po by LC-MS/MS analysis; assay type: ADME, organism-based; details: in vivo
[23] = target: T2, Lysine-specific histone demethylase 1A; test: Inhibition of LSD1 in human A549 cells assessed as increase in H3K4me1 protein level at 1 to 4 uM incubated for 72 hrs by Western blotting assay; assay type: cell-based; details: dose 1-4 µM
[24] = target: T2, Lysine-specific histone demethylase 1A
Description: Inhibition of recombinant human LSD1 using fluorometric substrate by HRP based fluorimeter microplate reader assay

A549 [25] = test: Induction of apoptosis in human A549 cells at 4 uM incubated for 48 hrs by Annexin V-FITC/PI staining based flow cytometry method; assay type: functional

Q: With Cc1ccc(-c2cc3c(cc2-c2ccc(C#N)cc2)c(C(=O)N2CCC(N)CC2)cn3S(=O)(=O)c2ccc(F)cc2)cc1 as the compound, how does the Activity (A549 [1]) read?
A: Active

Q: And the inhibition at 20 min, 10 µM (CYP2D6)?
A: 2.9%

Q: What about the Activity (A549 [2]) of the same compound?
A: Active

Q: And the pIC50 [3]?
A: 5.29

Q: And the Activity (A549 [4])?
A: Active

Q: What about the pIC50 [5] of the same compound?
A: 5.69

Q: And the Activity (A549 [6])?
A: Active

Q: What about the Activity (A549 [7]) of the same compound?
A: Dose-Dependent Effect

Q: And the pIC50 (MGC-803)?
A: 5.24

Q: And the pIC50 (NCI-H460)?
A: 5.42

Q: And the inhibition (A549 [8])?
A: Active

Q: What about the remaining at 1 h [9] of the same compound?
A: 79.2%

Q: And the remaining at 1 h [10]?
A: 102%

Q: And the half-life [11]?
A: 2.42 h

Q: What about the inhibition [12] of the same compound?
A: Dose-Dependent Effect

Q: And the Activity (A549 [13])?
A: Dose-Dependent Effect

Q: What about the inhibition at 20 min, 10 µM (CYP1A2) of the same compound?
A: 0%

Q: And the AUC(0-inf) [14]?
A: 1450 ng·h/mL

Q: What about the clearance [15] of the same compound?
A: 35.5 mL/min/kg

Q: And the Activity [16]?
A: Non-Toxic

Q: What about the inhibition [17] of the same compound?
A: Active

Q: And the Activity (A549 [18])?
A: Active

Q: And the Activity (A549 [19])?
A: Active

Q: And the Activity (A549 [20])?
A: Active

Q: And the inhibition [21]?
A: Dose-Dependent Effect

Q: And the Tmax [22]?
A: 4 h

Q: What about the inhibition [23] of the same compound?
A: Dose-Dependent Effect

Q: And the pIC50 [24]?
A: 7.30

Q: What about the Activity (A549 [25]) of the same compound?
A: 52.5%
